Patent US8470769B2, “Method of treatment of bacterial infection by administration of poly-lysine” (priority 2004, dated 2013)

How the values were obtained:
[1] = system: Trichophyton interdigitale (NCPF 117); assay: Fungal growth sensitivity assay (absorbance at 540 nm); type: cell-based
Method: (§1) Trichophyton interdigitale (NCPF 117) and Trichophyton rubrum (NCPF 335) strains were obtained from the National Collection of Pathogenic Fungi, Bristol and maintained in culture by transfer at approximately monthly intervals on slopes of Sabuoraud's agar and Potato Dextrose Agar at 30° C. Candida albicans strain 3179 (obtained from the National Collection of Type Cultures [NCTC], Colindale) was maintained in Oxoid Mueller Hinton Broth at 37° C. Streptococcus pyogenes strain 8198, Staphylococcus aureus strain 10642 (methicillin-resistant), and E. coli 0157 strain 12900 were obtained from the NCTC, Colindale and maintained in Oxoid Mueller Hinton Broth at 37° C.
(§2) To determine the sensitivity of fungal strains to each of the test peptides, their impact on fungal growth was assessed as follows. Suspensions of T. interdigitale and T. rubrum conidia and hyphal fragments were prepared by adding 10 ml of fresh Nutrient Glucose Broth (NGB) (Oxoid Nutrient broth containing 2% w/v glucose) to a slope culture and agitating with a spatula. The resulting conidial/hyphal fragment suspension was filtered through 2 layers of sterile surgical gauze to remove large hyphal mats and pieces of agar. 20 μl of this suspension (absorbance at 540 nm around 0.1, corresponding to approx 10^6 propagules/ml) was inoculated into each well of sterile, 96 well microtitre plates to which a total volume 80 μl of nutrient medium (NGB) and the appropriate amount of peptide solution had previously been added. Control wells were those in which the final assay volume of 100 μl was made up with NGB medium alone, plus solvent (if applicable and at the same concentration as the peptide samples if so). Fungal growth within the plates was monitored by absorbance at 540 nm in a Microtek plate reader after 24 h, 4 day and 7 day incubations at 30° C.

[2] = system: Trichophyton rubrum (NCPF 335); assay: as above; type: cell-based
Method: as §1
as §2, with “Fungal growth within the plates was monitored by absorbance at 540 nm in a Microtek plate reader after 24 h, 4 day and 7 day incubations at 30° C.” left out

[3] = system: Candida albicans strain 3179; assay: Candida albicans growth by optical density (absorbance at 540 nm); type: cell-based; conditions: 50 or 100 and 300 or 500 μg/ml peptide; 24 h and 48 h; time and dose-dependent (FIG. 4)
Method: as §1
The yeast Candida albicans was cultured, as described previously in the materials and methods section, in growth medium alone (control cultures) or in growth medium containing 50 μg/ml or 100 μg/ml and 300 μg/ml or 500 μg/ml of peptide 1, 2, 3 or 4. Growth of C. albicans was assessed by measuring optical density (absorbance at 540 nm) after 24 h (FIG. 4a) and 48 h (FIG. 4b) in culture. […] In a separate experiment, C. albicans survival was assessed after 18-24 h in cultures grown in medium alone (controls) or those including a range of concentrations of peptide 4 spanning 1 μg/ml to 1000 μg/ml (FIG. 6).

[4] = system: Candida albicans strain 3179; assay: Candida albicans survival assay (viable counts); type: cell-based; conditions: for Survival of Candida albicans, antifungal activity compared with poly-L-lysine: 100 μg/ml, 1 mg/ml and 10 mg/ml, 2 hours at 37° C. (FIG. 19)
Method: as §1
To determine the sensitivity of fungal strains to each of the test peptides, their impact on Candida survival was assessed as follows. C. albicans cultures were grown for 18-24 h then stored at 4° C. prior to use. Fresh cultures grown overnight were centrifuged at 2000×g for 10 min and washed with fresh Mueller Hinton Broth, adjusting the number of viable cells to between 5×10^6 and 1×10^7/ml. Assay buffer was prepared by adding 100 μl of NGB medium to 6.9 ml of 10 mM sodium phosphate buffer, pH 7.7. 35 μl of assay buffer with or without a range of peptide concentrations was added to a sterile polypropylene screw-capped vial and 15 μl of the Candida albicans inoculum described above was added. The vials were incubated at 37° C. in a water bath for 2 h, and the number of Candida spp. surviving was determined by serial dilution in sterile phosphate buffered saline (PBS) and plating out onto 9 cm Petri dishes containing Oxoid Sabouraud's Agar (20 ml). Counts were made after incubation of these plates at 37° C. for 18-24 h.

[5] = system: E. coli 0157 strain 12900; assay: Bacterial survival assay; type: cell-based, Escherichia coli; conditions: range of concentrations; 3 h of exposure; dose dependent (FIG. 7)
Method: (§3) Streptococcus pyogenes strain 8198, Staphylococcus aureus strain 10642 (methicillin-resistant), and E. coli 0157 strain 12900 (all obtained from the NCTC, Colindale) were grown for 18-24 h then stored at 4° C. prior to use. Fresh cultures grown overnight were centrifuged at 2000×g for 10 min and washed with fresh Mueller Hinton Broth. Sensitivity to each of the four peptides was assayed as per C. albicans described above. For E. coli and S. aureus, the starting number of cells for the peptide sensitivity assay was 10^8/ml and the medium used for enumeration was Nutrient Agar (Oxoid). Str. pyogenes grew less well than the other strains on Mueller Hinton agar and so the starting number of cells for these assays was lower than that for the other strains, at 10^6/ml. Str. pyogenes survival was determined using Oxoid Tryptose Soya Agar in place of Nutrient Agar.
(§4) Three clinically relevant bacterial pathogens, E. coli 0157, methicillin-resistant Staphylococcus aureus (MRSA) and Streptococcus pyogenes, were exposed, as described previously in the materials and methods section, to a range of concentrations of peptide 4. After a period of 3 h, samples of each bacterial culture were transferred to appropriate solid phase growth media plates and the numbers of viable colonies in control (growth medium only) and treated (growth medium containing peptide 4) samples assessed after 18-24 h.

[6] = system: Staphylococcus aureus strain 10642 (methicillin-resistant); assay: Bacterial survival assay; type: cell-based; conditions: range of concentrations; 3 h of exposure; dose dependent (FIG. 7)
Method: as §3, §4

[7] = system: Streptococcus pyogenes strain 8198; assay: Bacterial survival assay; type: cell-based; conditions: range of concentrations; 3 h of exposure; dose dependent (FIG. 7)
Method: as §3, §4

[8] = 3 concentrations of Peptide 4, no acetic acid, 96 hours at 30° C. (FIG. 9)
[9] = 100 μg/ml, no acetic acid, 96 hours at 30° C. (FIG. 15)
[10] = 3 concentrations, no acetic acid, 96 hours at 30° C. (FIG. 14)
[11] = no acetic acid, 96 hours at 30° C. (FIG. 13)

CC(=O)O [acetic acid]
Growth of T. interdigitale ([1]; 0.5% acetic acid, 96 hours at 30° C. (FIG. 11)): significant effect | Growth of T. rubrum (OD) ([2]; 0.01% acetic acid alone, 3 days in culture (FIG. 8)): no significant effect

L-Arginine trimer [RRR]
Activity against T. rubrum compared among the trimers ([2]; 2 mg/ml of each trimer, 96 hours at 30° C. (FIG. 16)): most active peptide | Growth of T. rubrum (OD, percentage of the growth in the untreated culture) ([2]; 2 mg/ml of trimer, 96 hours at 30° C. (FIG. 16)): significant reduction in growth

Peptide 4: peptide of FIG. 1 (SEQ ID NO: 10); highly cationic peptide comprising lysine and arginine residues (KRKRKRKCRKRKRRCRKRKCKRKRKRKRKCRKRKRKCCRRKK)
Growth of T. interdigitale (optical density, absorbance at 540 nm) ([1]; 50 μg/ml peptide, day 4 and 7, 0.5% acetic acid as solvent, compared to un-treated control (FIG. 2)): significantly inhibited | Growth of T. interdigitale (OD) [1, 8]: inhibitory effect | Growth of T. interdigitale (OD) ([1]; 7 days, no acetic acid solvent (FIG. 10)): significantly inhibit fungal growth | Effect of salt concentrations on antifungal activity towards T. interdigitale ([1]; Peptide 4 1.2 mg/ml, NaCl 100 mM to 500 mM, no acetic acid, 96 h at 30° C. (FIG. 17)): not affected | Peptide concentration at which growth of T. interdigitale was inhibited ([1]; no acetic acid, 96 hours at 30° C. (FIG. 9)): 0.55 mg/mL | Growth of T. rubrum (optical density, absorbance at 540 nm) ([2]; 50 μg/ml peptide, day 4 and 7, 0.5% acetic acid as solvent, compared to un-treated control (FIG. 3)): significantly inhibited | Growth of T. rubrum (OD) ([2]; 1 mg/ml peptide 4 alone, 3 days in culture (FIG. 8)): inhibited T. rubrum growth | Growth of T. rubrum (OD) [2, 8]: inhibitory effect | Growth of C. albicans (optical density, absorbance at 540 nm) [3]: significantly inhibited C. albicans growth | Survival of C. albicans (viability counts) ([4]; 1 μg/ml to 1000 μg/ml, after 24 h in culture (FIG. 6)): decreased in a dose-dependent manner | Survival of C. albicans at high salt concentrations ([4]; range of Peptide 4 concentrations, two concentrations of NaCl, 2 h incubation at 37° C. (FIG. 18)): Significant killing activity | Effect of salts on fungicidal activity against C. albicans ([4]; two concentrations of NaCl, 2 h incubation at 37° C. (FIG. 18)): not inhibited by salts | Survival of E. coli 0157 (viable colonies) [5]: significantly inhibited survival | Survival of methicillin-resistant Staphylococcus aureus (MRSA) (viable colonies) [6]: significantly inhibited survival | Survival of Streptococcus pyogenes (viable colonies) [7]: significantly inhibited survival

Poly-D-lysine-HBr 4,000-15,000Da (27-100aa) [pKd27-100]
Survival of Candida albicans, antifungal activity compared with poly-L-lysine [4]: very similar antifungal activity to the poly-L-lysine

Poly-L-arginine-HCl 5,000-15,000 (28-86aa) [pR28-86]
Growth of T. interdigitale (OD) [1, 9]: loss of activity | Concentration down to which active against T. interdigitale [1, 10]: 0.55 mg/mL | Growth of T. rubrum (OD) [2, 9]: loss of activity | Growth of T. rubrum ([2]; 1 mg/ml, no acetic acid, 96 hours at 30° C. (FIG. 13)): totally inhibiting growth | Concentration down to which active against T. rubrum [2, 10]: 0.55 mg/mL | Inhibitory impact against T. rubrum compared with poly-L-Lysine ([2]; equivalent doses, no acetic acid, 96 hours at 30° C. (FIG. 13)): more active | Growth of T. rubrum [2, 11]: inhibited the growth | Survival of Candida albicans, antifungal activity compared with poly-L-lysine [4]: increased antifungal activity

Poly-L-lysine-HCl 15,000-30,000Da (100-200aa) [pK100-200]
Growth of T. interdigitale ([1]; between 1 mg/ml and 50 μg/ml, no acetic acid, 96 hours at 30° C. (FIG. 12)): inhibited growth at all concentrations tested | Growth of T. rubrum [2, 11]: inhibited the growth
